According to patent publication US10150755B2, “ASK1 inhibitor compounds and uses thereof” (Seal Rock Therapeutics, Inc., priority 2017, dated 2018):

test system: LPS-induced TNFalpha in Human PBMCs; experiment: Inhibition of LPS-induced TNFalpha in Human PBMCs; format: cell-based; conditions: PBMC, 100 ng/ml LPS, 6 hr, read-out: TNFa Inhibition IC50
Procedure: Cryopreserved human PBMCs were obtained from AllCells (cat# PB003F). After thawing/dilution protocols using RPMI medium supplemented with 5% FBS (heat inactivated), 100 ul/well of 1×10^6 cells/ml were plated into 96 well tissue culture plates (Corning). Cells were then pre-incubated for 1 hr at 37° C. in humidified 5% CO2 and 95% air with test compounds diluted in DMSO (final DMSO concentration 0.3%). Each compound was tested at 10 concentrations in duplicate wells. After the pre-incubation, 100 ng/ml LPS (E. Coli; Sigma) in RPMI media with 5% FBS was added for a 6 hr incubation at 37° C. in humidified 5% CO2 and 95% air. Controls on each plate included cells and LPS only, cells and media only (no LPS), and media only. After the 6 hr incubation, plates were centrifuged and the supernatants transferred to a new plate and frozen for subsequent TNFalpha analysis. Human TNFalpha was analyzed by ELISA according to the manufacturer's instructions (BD Sciences, BD OptEIA™ Cat#550610) and analyzed on a SpectraMax M series (Molecular Devices) microplate reader at OD 450 nm. IC50s were calculated using XLFit4 curve fitting software (IDBS) and a 4-parameter one-site sigmoid dose response fit.

Row | SMILES | IC50
1 | O=C1c2cc(-c3cccnc3)ccc2CN1c1cccc(-c2nncn2C2CC2)n1 [Compound 40, 2-(6-(4-cyclopropyl-4H-1,2,4-triazol-3-yl)pyridin-2-yl)-6-(pyridin-3-yl)isoindolin-1-one] | < 2000 nM

molecular target: ASK1 (Homo sapiens (Human), UniProt Q99683); experiment: ASK1 Kinase Assay (Promega ASK1 Kinase Enzyme System, ADP-Glo); format: biochemical; conditions: enzyme 50 nM, ATP 10 μM
Procedure: The ASK1 enzymatic assay was run following Promega ASK1 Kinase Enzyme System (Cat #V3881). The kit provides the protocol, enzymes and all reagents necessary to run an assay. Firstly, the compounds, enzyme, substrate and ATP were diluted in provided assay buffer. The final concentration of the enzyme was 50 nM, substrate (Myelin basic protein) 1 μg/ml and ATP 10 μM. The compound and the enzyme were pre-incubated in a 384 well white solid bottom plate (Greiner, Cat#784075) for 10 minutes. After incubation, the substrate and ATP were added and incubated for further 60 minutes. After 60 minutes, ADP-Glo™ was added and plate was incubated for another 40 minutes. After 40 minutes, Kinase Detection Reagent was added and the plate was incubated for 45 minutes. After 45 minutes, plate was read on Perkin Elmer EnVision using luminescence read (0.5 seconds/well).

ASK1, sequence (Q99683 649-946 limits assumed): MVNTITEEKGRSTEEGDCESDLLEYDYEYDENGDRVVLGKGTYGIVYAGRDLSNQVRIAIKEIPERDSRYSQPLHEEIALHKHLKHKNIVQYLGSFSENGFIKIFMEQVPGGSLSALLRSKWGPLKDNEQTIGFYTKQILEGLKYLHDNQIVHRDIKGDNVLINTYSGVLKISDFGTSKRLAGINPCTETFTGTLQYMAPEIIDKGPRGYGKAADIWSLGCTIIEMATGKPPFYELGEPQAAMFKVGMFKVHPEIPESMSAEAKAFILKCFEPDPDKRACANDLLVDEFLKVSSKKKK

Row | SMILES | IC50
2 | O=C1c2cc(-c3cnn(C4CC4)c3)ccc2CN1c1cccc(-c2nncn2C2CC2)n1 [Compound 47, 6-(1-cyclopropyl-1H-pyrazol-4-yl)-2-(6-(4-cyclopropyl-4H-1,2,4-triazol-3-yl)pyridin-2-yl)isoindolin-1-one] | < 200 nM
3 | O=C1c2cc(-c3cnccc3F)ccc2CN1c1cccc(-c2nncn2C2CC2)n1 [Compound 48, 2-(6-(4-cyclopropyl-4H-1,2,4-triazol-3-yl)pyridin-2-yl)-6-(4-fluoropyridin-3-yl)isoindolin-1-one] | < 200 nM
4 | O=C1c2cc(-c3cnccc3Cl)ccc2CN1c1cccc(-c2nncn2C2CC2)n1 [Compound 49, 6-(4-chloropyridin-3-yl)-2-(6-(4-cyclopropyl-4H-1,2,4-triazol-3-yl)pyridin-2-yl)isoindolin-1-one] | < 200 nM
5 | O=C1c2cc(-c3ccncc3)ccc2CN1c1cccc(-c2nncn2C2CC2)n1 [Compound 50, 2-(6-(4-cyclopropyl-4H-1,2,4-triazol-3-yl)pyridin-2-yl)-6-(pyridin-4-yl)isoindolin-1-one] | < 200 nM
6 | Cc1ncc(-c2ccc3c(c2)C(=O)N(c2cccc(-c4nncn4C4CC4)n2)C3)s1 [Compound 51, 2-(6-(4-cyclopropyl-4H-1,2,4-triazol-3-yl)pyridin-2-yl)-6-(2-methylthiazol-5-yl)isoindolin-1-one] | < 200 nM
7 | Cc1ncccc1-c1ccc2c(c1)C(=O)N(c1cccc(-c3nncn3C3CC3)n1)C2 [Compound 52, 2-(6-(4-cyclopropyl-4H-1,2,4-triazol-3-yl)pyridin-2-yl)-6-(2-methylpyridin-3-yl)isoindolin-1-one] | < 200 nM
8 | O=C1c2cc(-c3cccnc3F)ccc2CN1c1cccc(-c2nncn2C2CC2)n1 [Compound 53, 2-(6-(4-cyclopropyl-4H-1,2,4-triazol-3-yl)pyridin-2-yl)-6-(2-fluoropyridin-3-yl)isoindolin-1-one] | < 200 nM
9 | Cc1cncc(-c2ccc3c(c2)C(=O)N(c2cccc(-c4nncn4C4CC4)n2)C3)c1 [Compound 54, 2-(6-(4-cyclopropyl-4H-1,2,4-triazol-3-yl)pyridin-2-yl)-6-(5-methylpyridin-3-yl)isoindolin-1-one] | < 200 nM
10 | O=C1c2cc(-c3cncc(F)c3)ccc2CN1c1cccc(-c2nncn2C2CC2)n1 [Compound 55, 2-(6-(4-cyclopropyl-4H-1,2,4-triazol-3-yl)pyridin-2-yl)-6-(5-fluoropyridin-3-yl)isoindolin-1-one] | 200 to 1000 nM
11 | O=C1c2cc(-c3cnc(C4CC4)nc3)ccc2CN1c1cccc(-c2nncn2C2CC2)n1 [Compound 56, 2-(6-(4-cyclopropyl-4H-1,2,4-triazol-3-yl)pyridin-2-yl)-6-(2-cyclopropylpyrimidin-5-yl)isoindolin-1-one] | < 200 nM
12 | Cn1ccnc1-c1ccc2c(c1)C(=O)N(c1cccc(-c3nncn3C3CC3)n1)C2 [Compound 57, 2-(6-(4-cyclopropyl-4H-1,2,4-triazol-3-yl)pyridin-2-yl)-6-(1-methyl-1H-imidazol-2-yl)isoindolin-1-one] | < 200 nM
13 | O=C1c2cc(-c3ccccn3)ccc2CN1c1cccc(-c2nncn2C2CC2)n1 [Compound 58, 2-(6-(4-cyclopropyl-4H-1,2,4-triazol-3-yl)pyridin-2-yl)-6-(pyridin-2-yl)isoindolin-1-one] | < 200 nM
14 | O=C1c2cc(-c3cccnn3)ccc2CN1c1cccc(-c2nncn2C2CC2)n1 [Compound 59, 2-(6-(4-cyclopropyl-4H-1,2,4-triazol-3-yl)pyridin-2-yl)-6-(pyridazin-3-yl)isoindolin-1-one] | < 200 nM
15 | O=C1c2cc(-c3ccc(C4CC4)nn3)ccc2CN1c1cccc(-c2nncn2C2CC2)n1 [Compound 61, 2-(6-(4-cyclopropyl-4H-1,2,4-triazol-3-yl)pyridin-2-yl)-6-(6-cyclopropylpyridazin-3-yl)isoindolin-1-one] | < 200 nM
16 | O=C1c2cc(-n3cc(C4CC4)nn3)ccc2CN1c1cccc(-c2nncn2C2CC2)n1 [Compound 62, 6-(4-cyclopropyl-1H-1,2,3-triazol-1-yl)-2-(6-(4-cyclopropyl-4H-1,2,4-triazol-3-yl)pyridin-2-yl)isoindolin-1-one] | < 200 nM
17 | O=C1c2cc(-c3cccnc3)c(F)cc2CN1c1cccc(-c2nncn2C2CC2)n1 [Compound 63, 2-(6-(4-cyclopropyl-4H-1,2,4-triazol-3-yl)pyridin-2-yl)-5-fluoro-6-(pyridin-3-yl)isoindolin-1-one] | < 200 nM
18 | O=C1c2cc(-c3cccnc3)c(Cl)cc2CN1c1cccc(-c2nncn2C2CC2)n1 [Compound 65, 5-chloro-2-(6-(4-cyclopropyl-4H-1,2,4-triazol-3-yl)pyridin-2-yl)-6-(pyridin-3-yl)isoindolin-1-one] | < 200 nM

Further lines, results first:

Row | IC50 | SMILES
19 | < 200 nM | CN(C)c1cc2c(cc1-c1cccnc1)C(=O)N(c1cccc(-c3nncn3C3CC3)n1)C2 [Compound 67, 2-(6-(4-cyclopropyl-4H-1,2,4-triazol-3-yl)pyridin-2-yl)-5-(dimethylamino)-6-(pyridin-3-yl)isoindolin-1-one]
20 | < 200 nM | COC(=O)c1ccc2c(c1)C(=O)N(c1cccc(-c3nncn3C3CC3)n1)C2 [Compound 72, methyl 2-(6-(4-cyclopropyl-4H-1,2,4-triazol-3-yl)pyridin-2-yl)-3-oxoisoindoline-5-carboxylate]
21 | < 200 nM | O=C(O)c1ccc2c(c1)C(=O)N(c1cccc(-c3nncn3C3CC3)n1)C2 [Compound 73, 2-(6-(4-cyclopropyl-4H-1,2,4-triazol-3-yl)pyridin-2-yl)-3-oxoisoindoline-5-carboxylic acid]
22 | 200 to 1000 nM | CN(C)C(=O)c1ccc2c(c1)C(=O)N(c1cccc(-c3nncn3C3CC3)n1)C2 [Compound 74, 2-(6-(4-cyclopropyl-4H-1,2,4-triazol-3-yl)pyridin-2-yl)-N,N-dimethyl-3-oxoisoindoline-5-carboxamide]
23 | 200 to 1000 nM | O=C1c2ccccc2CN1c1cccc(-c2nnc3n2CCC3)n1 [Compound 76, 2-(6-(6,7-dihydro-5H-pyrrolo[2,1-c][1,2,4]triazol-3-yl)pyridin-2-yl)isoindolin-1-one]
24 | 1000 to 10000 nM | O=C1c2ccccc2CN1c1cccc(-c2nnc3n2CCCC3)n1 [Compound 77, 2-(6-(5,6,7,8-Tetrahydro-[1,2,4]triazolo[4,3-a]pyridin-3-yl)pyridin-2-yl)isoindolin-1-one]
25 | < 200 nM | O=C1c2ccccc2CN1c1cccc(-c2nnc3n2[C@@H](CO)CC3)n1 [Compound 79, (R)-2-(6-(5-(hydroxymethyl)-6,7-dihydro-5H-pyrrolo[2,1-c][1,2,4]triazol-3-yl)pyridin-2-yl)isoindolin-1-one]
26 | 1000 to 10000 nM | O=C1c2ccccc2CN1c1cccc(-c2nnc3n2[C@H](CO)CC3)n1 [Compound 81, (S)-2-(6-(5-(Hydroxymethyl)-6,7-dihydro-5H-pyrrolo[2,1-c][1,2,4]triazol-3-yl)pyridin-2-yl)isoindolin-1-one]
27 | < 200 nM | O=C1c2ccccc2CN1c1cccc(-n2nncc2C2CC2)n1 [Compound 83, 2-(6-(5-cyclopropyl-1H-1,2,3-triazol-1-yl)pyridin-2-yl)isoindolin-1-one]
28 | 200 to 1000 nM | O=C1c2ccccc2CN1c1cccc(-n2ccnn2)n1 [Compound 84, 2-(6-(1H-1,2,3-triazol-1-yl)pyridin-2-yl)isoindolin-1-one]
29 | < 200 nM | CC(C)n1cnnc1-c1cccc(N2Cc3ccc(-c4cccnc4)cc3C2=O)n1 [Compound 85, 2-(6-(4-isopropyl-4H-1,2,4-triazol-3-yl)pyridin-2-yl)-6-(pyridin-3-yl)isoindolin-1-one]
30 | 1000 to 10000 nM | O=C1c2ccccc2CN1c1nccc(-c2nncn2C2CC2)n1 [Compound 86, 2-(4-(4-cyclopropyl-4H-1,2,4-triazol-3-yl)pyrimidin-2-yl)isoindolin-1-one]
31 | 1000 to 10000 nM | O=c1c2ccccc2[nH]n1-c1cccc(-c2nncn2C2CC2)n1 [Compound 87, 2-(6-(4-cyclopropyl-4H-1,2,4-triazol-3-yl)pyridin-2-yl)-1,2-dihydro-3H-indazol-3-one]
32 | 1000 to 10000 nM | Cn1c2ccccc2c(=O)n1-c1cccc(-c2nncn2C2CC2)n1 [Compound 88, 2-(6-(4-cyclopropyl-4H-1,2,4-triazol-3-yl)pyridin-2-yl)-1-methyl-1,2-dihydro-3H-indazol-3-one]
33 | 1000 to 10000 nM | O=c1c2ccccc2sn1-c1cccc(-c2nncn2C2CC2)n1 [Compound 89, 2-(6-(4-cyclopropyl-4H-1,2,4-triazol-3-yl)pyridin-2-yl)benzo[d]isothiazol-3(2H)-one]
